US20150038541A1, “COMPOSITION AND METHODS FOR CELL MODULATION” (APOSIGNAL BIOSCIENCE LLC, priority 2012, published 2015)

Key:
HeLa cells [1] = assay: MTS cell viability of HeLa cells treated with anticancer drug with or without AS-7 (48 hours); format: cell-based, human; details: for Dose Reduction Index (DRI), combination of AS-7 with bortezomib: CalcuSyn
Protocol: HeLa cells were seeded in a 96 well tissue culture plate (2000 cells per well). The compounds, 10 μM AS-7 and bortezomib (BioVision, Inc., Milpitas, Calif.) at the concentrations indicated in FIG. 1, were added the following day. AS-7 was prepared according to the Ugi reaction by combination of the four components: isocyanide (III), m-cyanobenzaldehyde (IV), 2-benzoylbenzoic acid (V), and histamine (VI) in refluxing methanol (Ref. http://www.occhem.com/synthesis/2561 2.html). The Medicinal Chemistry unit of Southern Research Institute (2000 Ninth Avenue South Birmingham, Ala. 35205) was contracted by a fee for service agreement to synthesize AS-7.
After 48 hours, MTS (3-(4,5-dimethylthiazol-2-yl)-5-(3-carboxymethoxyphenyl)-2-(4-sulfophenyl)-2H-tetrazolium) was added and absorbance was measured at 490 nm. […] Values in FIG. 1 are relative to controls that contained only the vehicle in which the drugs were dissolved. Vehicle had no effect on cell viability. Error bars in FIG. 1 are not visible if they are smaller than the symbols. […]
HeLa cells were seeded in a 96 well tissue culture plate (2000 cells per well). The compounds, 10 μM AS-7 and bortezomib at the concentrations indicated in FIG. 9 were added the following day. After 48 hours, MTS was added and absorbance was measured at 490 nm. […] Values are relative to controls that contained only the vehicle in which the drugs were dissolved. Vehicle had no effect on cell viability.

[2] = system: Multiple myeloma cells (RPMI 8226); assay: MTS cell viability of multiple myeloma cells treated with bortezomib with or without AS-7; format: cell-based
Protocol: Multiple myeloma cells (RPMI 8226) were seeded in a 96 well tissue culture plate (2000 cells per well). The compounds, 10 μM AS-7 and bortezomib at the concentrations indicated in […], were added the following day. AS-7 was prepared as described in Example I above. After 48 hours, MTS was added and absorbance was measured at 490 nm. […] Values in FIG. 2 are relative controls that contained only the vehicle in which the drugs were dissolved. Vehicle had no effect on cell viability. Error bars in FIG. 2 are not visible if they are smaller than the symbols.

[3] = system: ovarian tumor derived IGROV cells; assay: Crystal violet cell viability of ovarian IGROV cells, bortezomib with or without AS-7 (72 hours); format: cell-based; details: 10 μM AS-7
Protocol: (§1) Ovarian tumor-derived cell lines, IGROV and A2780, were seeded in a 96 well tissue culture plate (2000 cells per well). The compounds, 10 μM AS-7 and bortezomib (BioVision, Inc., Milpitas, Calif.) at the concentrations indicated in the figures, were added the following day. AS-7 was prepared as described in Example I above. […] Values are relative to cells that with the vehicle in which the drugs were dissolved. Vehicle had no effect on cell viability. Error bars in FIG. 6 and FIG. 7 are not shown if they are smaller than the symbols.

ovarian A2780 cells = assay: Crystal violet cell viability of ovarian A2780 cells, bortezomib with or without AS-7 (72 hours); format: cell-based, human; details: A2780 cells; 10 μM AS-7
Protocol: as §1

HeLa cells [4] = assay: FACS analysis after propidium iodide staining (cell cycle, apoptosis) of HeLa cells; format: cell-based, human
Protocol: FIG. 15 illustrates that AS-7 evokes accumulation HeLa cells in the G0-G1 phase of the cell cycle. HeLa cells were harvested two days after treatment with or without AS-7, stained with propidium iodide and subjected to analysis by FACS (Fluorescence Activated Cell Sorter).
FIG. 17 illustrates that AS-7 blocks exit from the Go-G1 phase of the cell cycle. HeLa cells were treated with nocodazole which evoked accumulation of the cells in the G2-M phase of the cell cycle (Nocodazole Blocked). The cells were released from the nocodazole block and treated with or without AS-7. After 16 hours the cells were stained with propidium iodide and subjected to analysis by FACS (Fluorescence Activated Cell Sorter).
The appearance of essentially all of the AS-7 treated cells was indistinguishable from that of the untreated cells.
A single addition of 10 μM AS-7 for 1 day to 7 or more days was sufficient to evoke accumulation in the Go-G1 phase of the cell cycle (FIGS. 15 and 16) (data not shown). […] HeLa cells were treated with nocodazole (100 ng/ml) for 12 h which evoked accumulation of rounded, loosely attached cells in mitosis. The mitotic cells were harvested and treated with or without 10 μM AS-7 in the absence of nocodazole (Released, 16 hours).

proteasome = assay: Proteasome activity measured in lysates of treated cells; format: cell-based
From the text: The cytotoxic action of bortezomib is known to be mediated by proteasome inhibition and the induction of apoptosis.

[5] = Solubility in aqueous solutions; format: physicochemical
From the text: The ubiquitin-proteasome sensitizer compound and/or the ubiquitin-proteasome inhibitor compounds utilized in the method provided herein may also be modified by appending appropriate functionalities to enhance selective biological properties. Such modifications are known in the art and include those which increase biological penetration into a given biological system (e.g., blood, lymphatic system, central nervous system), increase oral availability, increase solubility to allow administration by injection, alter metabolism and alter rate of excretion. […] In some embodiments, AS-7 or an active derivative thereof can be dissolved at 50 mM AS-7 in dimethylsulfoxide containing 5% Cremaphor® EL detergent (Sigma Aldrich) and diluted approximately one thousand fold in a physiologic salt solution such as saline containing albumin in the range of the albumin concentration of blood. Alternatively, nanoparticles containing AS-7 or an active derivative thereof are administered to the subject. Nanoparticles can be made by mixing human albumin at a 3-4% solution in a salt solution of the desired pH and ionic strength, subjecting the solution to elevated pressure and releasing the solution via a small jet. Nanoparticles of optimal size can be purified by differential centrifugation. […]

HeLa cells [6] = assay: MTS cell viability of HeLa cells treated with anticancer drug with or without AS-7 (48 hours); format: cell-based, human; details: HeLa cells; 10 μM AS-7

- solubility in aqueous solutions [5]: limited solubility in aqueous solutions
SMILES: N#Cc1cccc(C(C(=O)NCC(c2ccccc2)c2ccccc2)N(CCc2c[nH]cn2)C(=O)c2ccccc2C(=O)c2ccccc2)c1 (centres unmarked) [AS-7]
- shift of NLVS concentration dependence (HeLa cell viability) (HeLa cells [1]; 10 μM AS-7, 48 hours, MTS): markedly shifted the NLVS concentration dependence to the left
- HeLa cell viability (HeLa cells [1]; AS-7 alone): no loss of cell viability
- Dose Reduction Index (DRI), combination of AS-7 with bortezomib (HeLa cells [1]; HeLa cells, 12 nM bortezomib): 7.3
- Dose Reduction Index (DRI), combination of AS-7 with bortezomib (HeLa cells [1]; HeLa cells, 16 nM bortezomib): 18
- Dose Reduction Index (DRI), combination of AS-7 with bortezomib (HeLa cells [1]; HeLa cells, 20 nM bortezomib): 72
- increase in potency of the cytotoxic action of bortezomib by AS-7 (HeLa cells [1]; HeLa cells, 10 μM AS-7): approximately 3.5 fold
- potentiation of the cytotoxic action of bortezomib (loss of multiple myeloma cell viability) ([2]; 10 μM AS-7, 48 hours, MTS): markedly potentiates
- increased potency of the cytotoxic action of bortezomib upon the addition of AS-7 ([2]; FIG. 2 as printed (multiple myeloma cells)): approximately 3.5 fold
- potentiation of the cytotoxic action of bortezomib (loss of cell viability) [3]: markedly potentiates
- increase in potency of the cytotoxic action of bortezomib by AS-7 (ovarian A2780 cells): approximately 3.1 fold
- induction of apoptosis (FACS, propidium iodide) (HeLa cells [4]; HeLa cells treated with AS-7 for several days, data not shown): failed to induce apoptosis
- cell cycle distribution (FACS, propidium iodide) (HeLa cells [4]; HeLa cells, 10 μM AS-7): evoked the accumulation
- cell cycle progression after release from nocodazole block (HeLa cells [4]; HeLa cells, 10 μM AS-7, 16 hours after release): blocked exit from the G0-G1 phase
- effect on proteasome activity (proteasome; cells treated with 10 ILIM AS-7 alone for various times): no effect
- effect of AS-7 on proteasome inhibition by bortezomib (proteasome; data not shown): did not increase
- increase in potency of the cytotoxic action of carfilzomib by AS-7 (HeLa cells [6]): approximately 3.5 fold
